These results are taken from US4800211A, “5-methylthio-3-hydroxybenzo [b]thiophene-2-carboxamide derivatives as cyclooxygenase and lipoxygenase inhibitors” (Merck & Co., Inc., priority 1986, dated 1989).

Assay [1] has as its system PAF-induced hyperalgesia. As to the kind of experiment: Platelet Activating Factor-Induced Hyperalgesia in the Rat. The settings on record: for % Analgesia (percentage of animals with vocalization threshold greater than 200 of vehicle-treated controls): Table 1, 30 min before PAF, readings 3 hours after PAF; for effect in the PAF-induced hyperalgesia assay (in words): pain response to PAF, rat. In kind it is in vivo, rat (female Sprague-Dawley). On the procedure:
In this assay, which is sensitive to inhibition by lipoxygenase inhibitors, but not cyclooxygenase inhibitors, compounds of formula (I) reduced the pain response to PAF (Table 1).
Groups of 10 female Sprague-Dawley rats, 35-50 g (Taconic Farms), were fasted overnight prior to testing. Hyperalgesia was induced in the rat by the subplantar injection of 1 ug PAF in physiological saline. Pain threshold was measured by applying pressure to the plantar surface of the hindpaw by means of a compressed air driven piston with a 2 mm tip. Vocalization thresholds were obtained 3 hr after injection of the PAF. Compounds, prepared at various doses in 1% methylcellulose suspension, were administered perorally 30 min before PAF. For each drug treatment group, animals with response pressures in the inflamed paw of 200% of control was considered to be analgesic. The mean vocalization threshold for each group was also calculated.

For assay [2], the target named is T1, RBL-1 cell 5-lipoxygenase (Rattus norvegicus, UniProt P12527).
T1 construct: measured in vitro against the RBL-1 cell 5-lipoxygenase; endogenous in cells; host or cells: RBL-1 cells
T1 sequence (P12527 1-673): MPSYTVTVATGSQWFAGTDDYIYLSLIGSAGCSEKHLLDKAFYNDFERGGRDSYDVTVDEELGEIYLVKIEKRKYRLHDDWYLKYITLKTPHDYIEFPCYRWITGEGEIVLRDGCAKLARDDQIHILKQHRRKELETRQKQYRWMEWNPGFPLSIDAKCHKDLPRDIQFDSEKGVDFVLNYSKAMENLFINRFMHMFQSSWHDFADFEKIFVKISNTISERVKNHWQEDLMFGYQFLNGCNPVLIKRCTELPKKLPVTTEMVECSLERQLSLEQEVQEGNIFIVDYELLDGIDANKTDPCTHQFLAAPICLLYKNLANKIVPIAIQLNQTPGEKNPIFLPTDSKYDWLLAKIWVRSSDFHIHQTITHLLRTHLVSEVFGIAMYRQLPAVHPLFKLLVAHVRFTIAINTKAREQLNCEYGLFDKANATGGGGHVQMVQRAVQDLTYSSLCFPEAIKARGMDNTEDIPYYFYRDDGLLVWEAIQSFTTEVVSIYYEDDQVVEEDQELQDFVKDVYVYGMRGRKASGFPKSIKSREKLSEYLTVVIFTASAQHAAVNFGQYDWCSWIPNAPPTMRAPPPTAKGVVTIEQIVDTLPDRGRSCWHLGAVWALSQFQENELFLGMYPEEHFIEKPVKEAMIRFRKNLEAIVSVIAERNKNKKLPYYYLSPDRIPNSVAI
Description: Inhibition of RBL-1 Cell 5-Lipoxygenase (5-HETE formation). It counts as biochemical. Conditions: read-out: Percent Inhibition. On the procedure: The ability of the compound of Formula I, e.g., Compound A, to inhibit leukotriene biosynthesis was also measured in vitro against the RBL-1 cell 5-lipoxygenase. The protocol for measuring inhibition of 5-HETE formation has been published in R. W. Egan et al., "Advances in Prostaglandin, Thromboxane, and leukotriene Research", Vol. 11 (edited by B. Samuelsson et al., Raven Press, N.Y., 1983), p. 151.

For assay [3], the system named is microsomal ram vesicular gland cyclooxygenase. As to the kind of experiment: Inhibition of microsomal ram vesicular gland cyclooxygenase. In kind it is biochemical. The source says: The protocol for measuring inhibition of this prostaglandin-producing enzyme has been published.
Setting [4] is: Rattus norvegicus, Platelet, po, 3 h, Table 2, 30 mg/kg p.o., read-out: % Rats Exhibiting Analgesia.
Where [5] appears, read: Rattus norvegicus, po, 3 h, read-out: % Rats Exhibiting Analgesia.

Molecules are shown by their SMILES. Read-outs that look alike come from different tables or passages of the source.

In the case of `CSc1ccc2sc(C(=O)NCc3ccccc3)c(O)c2c1` [Compound B, 3Hydroxy-5-(methylthio)---N--(phenylmethyl)benzo[b]thiophene2-carboxmide], the “% Analgesia (percentage of animals with vocalization threshold greater than 200 of vehicle-treated controls)” value in assay [1] (30 mg/kg p.o.) came out at 80%.
In the case of `CC(C(=O)O)c1ccc2oc(-c3ccc(Cl)cc3)nc2c1` (centres unmarked) [Benoxaprofen], the responders at 30 mg/kg in assay [1] (setting [4]) came to 10%. Moreover, in assay [1], the “effect in the PAF-induced hyperalgesia assay (in words)” value (“effect” below) is listed as “completely ineffective”.
`COc1ccc2c(c1)c(CC(=O)O)c(C)n2C(=O)c1ccc(Cl)cc1` [Indomethacin]: in assay [1] (setting [5]), the responders at 10 mg/kg turned out to be 10%. Moreover, in assay [1], the “effect” value is recorded as “completely ineffective”.
Regarding `CC(C)Cc1ccc(C(C)C(=O)O)cc1` (centres unmarked) [Ibuprofen], in assay [1] (setting [4]), the responders at 30 mg/kg stood at 10%. Further, the “effect” value in assay [1] is “completely ineffective”.
For the compound `CC(=O)Oc1ccccc1C(=O)O` [Aspirin], in assay [1] (setting [5]), the responders at 100 mg/kg turned out to be 10%.
As for `COc1ccc2cc([C@H](C)C(=O)O)ccc2c1` [Naproxen], the responders at 30 mg/kg in assay [1] (setting [5]) was determined as 10%.
Take `O=C(O)c1cc(-c2ccc(F)cc2F)ccc1O` [Diflunisal]: the responders at 30 mg/kg in assay [1] (setting [4]) came to 10%.
In the case of `CN1C(C(=O)Nc2ccccn2)=C(O)c2ccccc2S1(=O)=O` [Piroxicam], the responders at 30 mg/kg in assay [1] (setting [4]) is 0%. Also, the “effect” value in assay [1] is on record as “completely ineffective”.
As a reminder, the inhibition is the relative decrease from the control value, in per cent. `CSc1ccc2sc(C(=O)Nc3cccc(Cl)c3)c(O)c2c1` [Compound A, --N--(3chlorophenyl)-3-hydroxy-5-(methylthio)benzo[b]thiophene2-carbxamide]: the responders at 30 mg/kg in assay [1] (setting [4]) stood at 90%. Also, in assay [1] (30 mg/kg p.o.), the “% Analgesia (percentage of animals with vocalization threshold greater than 200 of vehicle-treated controls)” value worked out at 90%. Also, in assay [2] (0.5 ug/ml), the inhibition at 0.5 µg/mL was 48%. Besides, in assay [2] (1 ug/ml), the inhibition at 1 µg/mL turned out to be 58%. Besides, the inhibition at 2 µg/mL in assay [2] (2 ug/ml) came to 74%. For the same compound, the inhibition at 10 µg/mL in assay [2] (10 ug/ml) amounted to 83%. Also, the “Percent Inhibition” value in assay [3] is 95%.
Regarding `CC1=C(CC(=O)O)c2cc(F)ccc2/C1=C\c1ccc([S+](C)[O-])cc1` (centres unmarked) [Sulindac], the responders at 30 mg/kg in assay [1] (setting [4]) is 10%.
